Results reported in ChEMBL document CHEMBL3872253, “Synthesis and in vitro antiproliferative activity of C5-benzyl substituted 2-amino-pyrrolo[2,3-d]pyrimidines as potent Hsp90 inhibitors” (Bioorg Med Chem Lett, 2017).

How the values were obtained:
[1] = Growth inhibition of human MDA-MB-468 cells after 48 hrs by sulforhodamine B assay; format: functional; settings: MDA-MB-468, 48 h
[2] = Growth inhibition of human HCT116 cells at 10 uM after 72 hrs by MTT assay; format: functional; settings: HCT-116, 72 h
[3] = Growth inhibition of human SKBR3 cells at 10 uM after 72 hrs by MTT assay; format: functional; settings: SK-BR-3, 72 h
[4] = Growth inhibition of human MCF7 cells at 10 uM after 72 hrs by MTT assay; format: functional; settings: MCF7, 72 h
[5] = Cytotoxicity against human Hs 578T cells after 48 hrs by sulforhodamine B assay; format: functional
[6] = Cytotoxicity against human NCI-ADR-RES cells after 48 hrs by sulforhodamine B assay; format: functional
[7] = Cytotoxicity against human A549/ATCC cells after 48 hrs by sulforhodamine B assay; format: functional; settings: A549, 48 h
[8] = Cytotoxicity against human SR cells after 48 hrs by sulforhodamine B assay; format: functional
cells [9] = settings: Homo sapiens, T47D, 48 h
Description: Cytotoxicity against human T47D cells after 48 hrs by sulforhodamine B assay

cells [10] = settings: Homo sapiens, BT-549, 48 h
Description: Cytotoxicity against human BT549 cells after 48 hrs by sulforhodamine B assay

cells [11] = settings: Homo sapiens, MDA-MB-231, 48 h
Description: Cytotoxicity against human MDA-MB-231 cells after 48 hrs by sulforhodamine B assay

cells [12] = settings: Homo sapiens, MCF7, 48 h
Description: Cytotoxicity against human MCF7 cells after 48 hrs by sulforhodamine B assay

cells [13] = settings: Homo sapiens, DU-145, 48 h
Description: Cytotoxicity against human DU145 cells after 48 hrs by sulforhodamine B assay

cells [14] = settings: Homo sapiens, PC-3, 48 h
Description: Cytotoxicity against human PC3 cells after 48 hrs by sulforhodamine B assay

cells [15] = settings: Homo sapiens, UO-31, 48 h
Description: Cytotoxicity against human UO31 cells after 48 hrs by sulforhodamine B assay

cells [16] = settings: Homo sapiens, TK-10, 48 h
Description: Cytotoxicity against human TK10 cells after 48 hrs by sulforhodamine B assay

cells [17] = settings: Homo sapiens, SN12C, 48 h
Description: Cytotoxicity against human SN12C cells after 48 hrs by sulforhodamine B assay

cells [18] = settings: Homo sapiens, RXF 393, 48 h
Description: Cytotoxicity against human RXF393 cells after 48 hrs by sulforhodamine B assay

cells [19] = settings: Homo sapiens, CAKI-1, 48 h
Description: Cytotoxicity against human Caki1 cells after 48 hrs by sulforhodamine B assay

cells [20] = settings: Homo sapiens, ACHN, 48 h
Description: Cytotoxicity against human ACHN cells after 48 hrs by sulforhodamine B assay

cells [21] = settings: Homo sapiens, A498, 48 h
Description: Cytotoxicity against human A498 cells after 48 hrs by sulforhodamine B assay

cells [22] = settings: Homo sapiens, SK-OV-3, 48 h
Description: Cytotoxicity against human SKOV3 cells after 48 hrs by sulforhodamine B assay

cells [23] = settings: Homo sapiens, 786-0, 48 h
Description: Cytotoxicity against human 786-0 cells after 48 hrs by sulforhodamine B assay

cells [24] = settings: Homo sapiens, OVCAR-8, 48 h
Description: Cytotoxicity against human OVCAR8 cells after 48 hrs by sulforhodamine B assay

cells [25] = settings: Homo sapiens, OVCAR-5, 48 h
Description: Cytotoxicity against human OVCAR5 cells after 48 hrs by sulforhodamine B assay

cells [26] = settings: Homo sapiens, OVCAR-4, 48 h
Description: Cytotoxicity against human OVCAR4 cells after 48 hrs by sulforhodamine B assay

cells [27] = settings: Homo sapiens, OVCAR-3, 48 h
Description: Cytotoxicity against human OVCAR3 cells after 48 hrs by sulforhodamine B assay

cells [28] = settings: Homo sapiens, IGROV-1, 48 h
Description: Cytotoxicity against human IGROV1 cells after 48 hrs by sulforhodamine B assay

cells [29] = settings: Homo sapiens, UACC-62, 48 h
Description: Cytotoxicity against human UACC62 cells after 48 hrs by sulforhodamine B assay

cells [30] = settings: Homo sapiens, UACC-257, 48 h
Description: Cytotoxicity against human UACC257 cells after 48 hrs by sulforhodamine B assay

cells [31] = settings: Homo sapiens, SK-MEL-28, 48 h
Description: Cytotoxicity against human SK-MEL-28 cells after 48 hrs by sulforhodamine B assay

cells [32] = settings: Homo sapiens, SK-MEL-5, 48 h
Description: Cytotoxicity against human SK-MEL-5 cells after 48 hrs by sulforhodamine B assay

cells [33] = settings: Homo sapiens, SK-MEL-2, 48 h
Description: Cytotoxicity against human SK-MEL-2 cells after 48 hrs by sulforhodamine B assay

cells [34] = settings: Homo sapiens, MDA-MB-435, 48 h
Description: Cytotoxicity against human MDA-MB-435 cells after 48 hrs by sulforhodamine B assay

cells [35] = settings: Homo sapiens, M14, 48 h
Description: Cytotoxicity against human M14 cells after 48 hrs by sulforhodamine B assay

cells [36] = settings: Homo sapiens, Malme-3M, 48 h
Description: Cytotoxicity against human MALME-3M cells after 48 hrs by sulforhodamine B assay

cells [37] = settings: Homo sapiens, LOX IMVI, 48 h
Description: Cytotoxicity against human LOXIMVI cells after 48 hrs by sulforhodamine B assay

cells [38] = settings: Homo sapiens, U-251, 48 h
Description: Cytotoxicity against human U251 cells after 48 hrs by sulforhodamine B assay

cells [39] = settings: Homo sapiens, SNB-19, 48 h
Description: Cytotoxicity against human SNB19 cells after 48 hrs by sulforhodamine B assay

cells [40] = settings: Homo sapiens, SNB-75, 48 h
Description: Cytotoxicity against human SNB75 cells after 48 hrs by sulforhodamine B assay

cells [41] = settings: Homo sapiens, SF-539, 48 h
Description: Cytotoxicity against human SF539 cells after 48 hrs by sulforhodamine B assay

cells [42] = settings: Homo sapiens, SF-295, 48 h
Description: Cytotoxicity against human SF295 cells after 48 hrs by sulforhodamine B assay

cells [43] = settings: Homo sapiens, SF-268, 48 h
Description: Cytotoxicity against human SF268 cells after 48 hrs by sulforhodamine B assay

cells [44] = settings: Homo sapiens, SW-620, 48 h
Description: Cytotoxicity against human SW620 cells after 48 hrs by sulforhodamine B assay

cells [45] = settings: Homo sapiens, KM12, 48 h
Description: Cytotoxicity against human KM12 cells after 48 hrs by sulforhodamine B assay

cells [46] = settings: Homo sapiens, HT-29, 48 h
Description: Cytotoxicity against human HT-29 cells after 48 hrs by sulforhodamine B assay

cells [47] = settings: Homo sapiens, HCT-116, 48 h
Description: Cytotoxicity against human HCT116 cells after 48 hrs by sulforhodamine B assay

cells [48] = settings: Homo sapiens, HCT-15, 48 h
Description: Cytotoxicity against human HCT15 cells after 48 hrs by sulforhodamine B assay

cells [49] = settings: Homo sapiens, HCC 2998, 48 h
Description: Cytotoxicity against human HCC2998 cells after 48 hrs by sulforhodamine B assay

cells [50] = settings: Homo sapiens, COLO 205, 48 h
Description: Cytotoxicity against human COLO205 cells after 48 hrs by sulforhodamine B assay

cells [51] = settings: Homo sapiens, NCI-H522, 48 h
Description: Cytotoxicity against human NCI-H522 cells after 48 hrs by sulforhodamine B assay

cells [52] = settings: Homo sapiens, NCI-H460, 48 h
Description: Cytotoxicity against human NCI-H460 cells after 48 hrs by sulforhodamine B assay

cells [53] = settings: Homo sapiens, NCI-H23, 48 h
Description: Cytotoxicity against human NCI-H23 cells after 48 hrs by sulforhodamine B assay

cells [54] = settings: Homo sapiens, NCI-H226, 48 h
Description: Cytotoxicity against human NCI-H226 cells after 48 hrs by sulforhodamine B assay

cells [55] = settings: Homo sapiens, HOP-62, 48 h
Description: Cytotoxicity against human HOP62 cells after 48 hrs by sulforhodamine B assay

cells [56] = settings: Homo sapiens, HOP-92, 48 h
Description: Cytotoxicity against human HOP92 cells after 48 hrs by sulforhodamine B assay

cells [57] = settings: Homo sapiens, EKVX, 48 h
Description: Cytotoxicity against human EKVX cells after 48 hrs by sulforhodamine B assay

cells [58] = settings: Homo sapiens, RPMI-8226, 48 h
Description: Cytotoxicity against human RPMI8226 cells after 48 hrs by sulforhodamine B assay

cells [59] = settings: Homo sapiens, MOLT-4, 48 h
Description: Cytotoxicity against human MOLT4 cells after 48 hrs by sulforhodamine B assay

cells [60] = settings: Homo sapiens, K562, 48 h
Description: Cytotoxicity against human K562 cells after 48 hrs by sulforhodamine B assay

cells [61] = settings: Homo sapiens, CCRF-CEM, 48 h
Description: Cytotoxicity against human CCRF-CEM cells after 48 hrs by sulforhodamine B assay

cells [62] = settings: Homo sapiens, HL-60, 48 h
Description: Cytotoxicity against human HL-60(TB) cells after 48 hrs by sulforhodamine B assay

[63] = target: Heat shock protein HSP 90-alpha (Homo sapiens, UniProt P07900); assay: Inhibition of FITC-labeled geldanamycin binding to human Hsp90alpha by fluorescence polarization assay
[64] = Growth inhibition of human HFF1 cells at 10 uM after 72 hrs by MTT assay; format: cell-based, HFF-1
[65] = target: T1, Heat shock protein HSP90 (Homo sapiens) (UniProt P07900+P08238); assay: Inhibition of Hsp90 in human MCF7 cells assessed as proteasomal degradation of EGFR after 24 hrs by Western blot analysis; format: cell-based
[66] = target: T1, Heat shock protein HSP90 (Homo sapiens); assay: Inhibition of Hsp90 in human MCF7 cells assessed as proteasomal degradation of Her2 after 24 hrs by Western blot analysis; format: cell-based
[67] = target: T1, Heat shock protein HSP90 (Homo sapiens); assay: Inhibition of Hsp90 in human MCF7 cells assessed as proteasomal degradation of Akt after 24 hrs by Western blot analysis; format: cell-based
[68] = target: T1, Heat shock protein HSP90 (Homo sapiens); assay: Inhibition of Hsp90 in human MCF7 cells assessed as proteasomal degradation of Cdk4 after 24 hrs by Western blot analysis; format: cell-based
[69] = target: T1, Heat shock protein HSP90 (Homo sapiens); assay: Inhibition of HSP90 in human MCF7 cells assessed as increase in expression level of Hsp70 after 24 hrs by Western blot analysis; format: cell-based

CC(C)NCCCn1c(Sc2cc3c(cc2I)OCO3)nc2c(N)ncnc21 [PU-H71]
GI50 [1]: 83 nM
inhibition at 10 µM [2]: 78.4%
inhibition at 10 µM [3]: 65.3%
inhibition at 10 µM [4]: 70.5%
GI50 [5]: 1290 nM
GI50 [6]: 3630 nM
GI50 [7]: 87 nM
GI50 [8]: 60 nM
GI50 (cells [9]): 155 nM
GI50 (cells [10]): 1510 nM
GI50 (cells [11]): 479 nM
GI50 (cells [12]): 46 nM
GI50 (cells [13]): 48 nM
GI50 (cells [14]): 132 nM
GI50 (cells [15]): 324 nM
GI50 (cells [16]): 162 nM
GI50 (cells [17]): 174 nM
GI50 (cells [18]): 759 nM
GI50 (cells [19]): 525 nM
GI50 (cells [20]): 295 nM
GI50 (cells [21]): 437 nM
GI50 (cells [22]): 45 nM
GI50 (cells [23]): 513 nM
GI50 (cells [24]): 155 nM
GI50 (cells [25]): 3020 nM
GI50 (cells [26]): 33100 nM
GI50 (cells [27]): 589 nM
GI50 (cells [28]): 89 nM
GI50 (cells [29]): 372 nM
GI50 (cells [30]): 309 nM
GI50 (cells [31]): 417 nM
GI50 (cells [32]): 457 nM
GI50 (cells [33]): 355 nM
GI50 (cells [34]): 91 nM
GI50 (cells [35]): 234 nM
GI50 (cells [36]): 123 nM
GI50 (cells [37]): 79 nM
GI50 (cells [38]): 129 nM
GI50 (cells [39]): 646 nM
GI50 (cells [40]): 724 nM
GI50 (cells [41]): 851 nM
GI50 (cells [42]): 145 nM
GI50 (cells [43]): 2090 nM
GI50 (cells [44]): 59 nM
GI50 (cells [45]): 59 nM
GI50 (cells [46]): 38 nM
GI50 (cells [47]): 63 nM
GI50 (cells [48]): 437 nM
GI50 (cells [49]): 282 nM
GI50 (cells [50]): 48 nM
GI50 (cells [51]): 59 nM
GI50 (cells [52]): 58 nM
GI50 (cells [53]): 89 nM
GI50 (cells [54]): 759 nM
GI50 (cells [55]): 263 nM
GI50 (cells [56]): 288 nM
GI50 (cells [57]): 2510 nM
GI50 (cells [58]): 1510 nM
GI50 (cells [59]): 91 nM
GI50 (cells [60]): 71 nM
GI50 (cells [61]): 427 nM
GI50 (cells [62]): 63 nM

COc1c(C)cnc(Cn2cc(Cc3ccc(C)cc3)c3c(Cl)nc(N)nc32)c1C
IC50 [63]: 58 nM

COc1c(C)cnc(Cn2cc(Cc3cccc(C(F)(F)F)c3)c3c(Cl)nc(N)nc32)c1C
IC50 [63]: 8700 nM

COc1cc(Cc2cn(Cc3ncc(C)c(OC)c3C)c3nc(N)nc(Cl)c23)ccc1Br
IC50 [63]: 79 nM

Nc1nc(Cl)c2c(Cc3ccccc3)cn(Cc3cc4c(cc3I)OCO4)c2n1
inhibition at 72 h, 10 µM [64]: 36.2%
inhibition at 10 µM [2]: 74.5%
inhibition at 10 µM [3]: 63.8%
inhibition at 10 µM [4]: 74%
IC50 [63]: 750 nM

Nc1nc(Cl)c2c(Cc3ccccc3)cn(Cc3ccc4c(c3)OCO4)c2n1
inhibition at 72 h, 10 µM [64]: 11.2%
inhibition at 10 µM [2]: 48.8%
inhibition at 10 µM [3]: 4.32%
inhibition at 10 µM [4]: 54%

COc1c(C)cnc(Cn2cc(Cc3ccc(Cl)cc3)c3c(Cl)nc(N)nc32)c1C
IC50 [63]: 48 nM

Nc1nc(Cl)c2c(Cc3ccccc3)cn(Cc3cc4c(cc3Br)OCO4)c2n1
inhibition at 72 h, 10 µM [64]: 20.7%
inhibition at 10 µM [2]: 70.4%
inhibition at 10 µM [3]: 40.9%
inhibition at 10 µM [4]: 69.9%
IC50 [63]: 650 nM

C=CCNC1=C2C[C@@H](C)C[C@H](OC)[C@H](O)[C@@H](C)/C=C(\C)[C@H](OC(N)=O)[C@@H](OC)/C=C\C=C(/C)C(=O)NC(=CC1=O)C2=O [TANESPIMYCIN]
inhibition at 72 h, 10 µM [64]: 65.5%
inhibition at 10 µM [2]: 74.4%
inhibition at 10 µM [3]: 88.9%
inhibition at 10 µM [4]: 79.7%

COc1ccc(Cc2cn(Cc3ncc(C)c(OC)c3C)c3nc(N)nc(Cl)c23)cc1
inhibition at 72 h, 10 µM [64]: 10.1%
inhibition at 10 µM [2]: 80.9%
inhibition at 10 µM [3]: 69.4%
inhibition at 10 µM [4]: 80.1%
IC50 [63]: 94 nM

COc1c(C)cnc(Cn2cc(Cc3cccc(C)c3)c3c(Cl)nc(N)nc32)c1C
IC50 [63]: 51 nM

COc1c(C)cnc(Cn2cc(Cc3ccccc3)c3c(Cl)nc(N)nc32)c1C
IC50 [63]: 36 nM
inhibition [65]: Dose-dependent effect
inhibition [66]: Dose-dependent effect
inhibition [67]: Dose-dependent effect
inhibition [68]: Dose-dependent effect
inhibition [69]: Dose-dependent effect

COc1c(C)cnc(Cn2cnc3c(Cl)nc(N)nc32)c1C [BIIB021]
inhibition at 72 h, 10 µM [64]: 51.3%
inhibition at 10 µM [2]: 71.9%
inhibition at 10 µM [3]: 86.2%
inhibition at 10 µM [4]: 84.8%
